Experiment [1] deals with CHO-K1. Briefly: Counterscreen for antagonists of the orexin 1 receptor (OX1R; HCRTR1): Homogeneous time resolved fluorescence (HTRF)-based cell-based dose response assay to identify antagonists of the parental CHO-K1 cell line. [Related pubchem assays (depositor defined):AID434989, AID435008, AID463079, AID485270, AID492963, AID492964, AID492965, AID493232, AID504699, AID504701]. The conditions noted are these: Cricetulus griseus. In kind it is functional. Background: A counterscreen serves to expose hits that act by an unwanted route or on another target.

For experiment [2], the target named is T1, Orexin/Hypocretin receptor type 1 (Homo sapiens, UniProt O43613).
T1 sequence (O43613 whole entry): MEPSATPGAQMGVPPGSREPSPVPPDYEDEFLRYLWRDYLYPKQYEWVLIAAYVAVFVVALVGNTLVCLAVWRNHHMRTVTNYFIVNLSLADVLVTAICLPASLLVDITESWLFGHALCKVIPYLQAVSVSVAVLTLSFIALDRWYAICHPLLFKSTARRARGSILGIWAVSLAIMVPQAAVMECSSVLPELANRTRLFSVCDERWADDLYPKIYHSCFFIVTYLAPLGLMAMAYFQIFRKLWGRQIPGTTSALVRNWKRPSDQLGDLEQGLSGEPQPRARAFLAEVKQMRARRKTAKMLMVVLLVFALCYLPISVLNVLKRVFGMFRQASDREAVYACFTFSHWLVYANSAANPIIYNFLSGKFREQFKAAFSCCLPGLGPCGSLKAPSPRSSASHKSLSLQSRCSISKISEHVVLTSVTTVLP
Briefly: Fluorescence-based cell-based high throughput dose response assay for antagonists of the orexin 1 receptor (OX1R; HCRTR1). [Related pubchem assays (depositor defined):AID434989, AID435008, AID463079, AID485270, AID492963, AID492964, AID492965, AID493232, AID504717, AID504718]. It counts as functional.

Experiment [3] deals with T1, Orexin/Hypocretin receptor type 1. Briefly: Homogeneous Time Resolved Fluorescence (HTRF)-based cell-based high throughput dose response assay for antagonists of the orexin 1 receptor (OX1R; HCRTR1). [Related pubchem assays (depositor defined):AID434989, AID435008, AID463079, AID485270, AID492963, AID492964, AID492965, AID493232, AID504717, AID504718]. It counts as functional.

The nature of experiment [4]: Counterscreen for antagonists of the orexin 1 receptor (OX1R; HCRTR1): Fluorescence-based cell-based high throughput dose response assay to identify antagonists of the parental CHO cell line. [Related pubchem assays (depositor defined):AID434989, AID435008, AID463079, AID485270, AID492963, AID492964, AID492965, AID493232, AID504699, AID504701]. In kind it is functional.

Experiment [5] addresses T2, Kappa-type opioid receptor (Homo sapiens, UniProt P41145). It counts as functional.
For experiment [6], the target named is T3, Delta-type opioid receptor (Homo sapiens, UniProt P41143). Briefly: HTS Image-Based Screen for Agonists of the DOR Receptor. [Related pubchem assays (depositor defined):AID1777, AID1786, AID2133]. In kind it is functional.
Experiment [7] addresses Beta-galactosidase (Escherichia coli, UniProt Q8VNN2). In kind it is functional.
The target in experiment [8] is T3, Delta-type opioid receptor. Briefly: HTS Image-Based Screen for Antagonists of the DOR Receptor. [Related pubchem assays (depositor defined):AID1777, AID1785, AID1786, AID2133]. It counts as functional.
Experiment [9] has as its target Mu-type opioid receptor (Homo sapiens, UniProt P35372). Briefly: HTS Image-Based Screen for Agonists of the MOR Receptor. [Related pubchem assays (depositor defined):AID1777, AID1785, AID1786, AID2133]. In kind it is functional.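 Also: imaging of beta-arrestin GFP recruitment into spots after receptor activation.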
Experiment [10] concerns the target T2, Kappa-type opioid receptor. In kind it is functional. The source holds these as a separate data set.
Experiment [11] addresses T4, Bifunctional protein GlmU (Mycobacterium tuberculosis, UniProt P9WMN3).
T4 sequence (P9WMN3 whole entry): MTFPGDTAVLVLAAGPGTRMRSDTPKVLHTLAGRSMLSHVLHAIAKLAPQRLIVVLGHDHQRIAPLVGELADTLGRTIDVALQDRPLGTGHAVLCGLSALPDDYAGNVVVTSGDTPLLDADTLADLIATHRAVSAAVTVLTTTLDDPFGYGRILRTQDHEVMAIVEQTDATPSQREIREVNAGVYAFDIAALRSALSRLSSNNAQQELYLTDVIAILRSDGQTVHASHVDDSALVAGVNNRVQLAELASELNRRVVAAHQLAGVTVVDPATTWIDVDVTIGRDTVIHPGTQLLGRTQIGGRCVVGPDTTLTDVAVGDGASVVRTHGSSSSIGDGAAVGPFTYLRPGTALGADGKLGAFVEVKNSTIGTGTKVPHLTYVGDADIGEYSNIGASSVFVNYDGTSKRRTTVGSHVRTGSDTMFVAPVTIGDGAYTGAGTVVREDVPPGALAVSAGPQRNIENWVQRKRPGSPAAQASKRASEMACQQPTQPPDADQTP
Briefly: Inhibitors of Mycobacterial Glucosamine-1-phosphate acetyl transferase (GlmU). Secondary screen. Set-up: species or system Mycobacterium tuberculosis H37Rv.

The target in experiment [12] is E3 ubiquitin-protein ligase Mdm2 (Homo sapiens, UniProt Q00987). Briefly: enhancers of MDM2-luciferase reporter signal, concentration-effect titration, project on inhibitors of MDM2 ubiquitin ligase, cellular assay, luminescent readout, 384-well plate format (AID 1394).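 Also: MDM2 E3 inhibitors raise luminescence so EC50 is for signal enhancement.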 In kind it is functional. A general note: In a reporter assay the amount or activity of a reporter protein is the signal.

Experiment [13] addresses T5, Rac GTPase-activating protein 1 (Homo sapiens, UniProt Q9H0H5).
T5 sequence (Q9H0H5 whole entry): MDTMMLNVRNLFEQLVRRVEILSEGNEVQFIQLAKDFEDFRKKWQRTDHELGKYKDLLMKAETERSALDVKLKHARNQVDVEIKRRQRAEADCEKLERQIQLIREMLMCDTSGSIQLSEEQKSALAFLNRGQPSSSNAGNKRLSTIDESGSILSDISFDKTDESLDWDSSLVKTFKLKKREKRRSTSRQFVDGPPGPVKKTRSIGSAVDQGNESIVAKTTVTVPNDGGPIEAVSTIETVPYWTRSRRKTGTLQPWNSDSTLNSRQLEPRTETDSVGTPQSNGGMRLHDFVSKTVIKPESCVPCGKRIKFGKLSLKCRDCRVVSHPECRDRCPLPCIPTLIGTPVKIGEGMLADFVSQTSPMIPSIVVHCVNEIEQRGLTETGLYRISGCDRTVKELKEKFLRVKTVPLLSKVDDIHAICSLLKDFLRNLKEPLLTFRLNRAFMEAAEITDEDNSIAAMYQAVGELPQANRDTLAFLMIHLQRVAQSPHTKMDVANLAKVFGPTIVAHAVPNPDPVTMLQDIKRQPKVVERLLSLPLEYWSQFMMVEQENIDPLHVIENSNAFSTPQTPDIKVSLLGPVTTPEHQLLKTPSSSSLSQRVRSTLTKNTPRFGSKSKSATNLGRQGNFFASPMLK
Briefly: MgcRacGAP GTPase-activating activity inhibitors, confirmation, biochemical, ADP Hunter fluorescence, primary and confirmatory (AID 624330). In kind it is functional.

For experiment [14], the target named is Troponin, cardiac muscle (Homo sapiens, UniProt P19429+P45379+P63316). Briefly: Fluorescence-based biochemical high throughput dose response assay for activators of the calcium sensitivity of cardiac Regulated Thin Filaments (RTF). [Related pubchem assays (depositor defined):AID493008, AID493018, AID504382, AID504383]. In kind it is protein-complex assay.

In experiment [15] the target is T6, Protein skinhead-1 (Caenorhabditis elegans, UniProt P34707).
T6 sequence (P34707 whole entry): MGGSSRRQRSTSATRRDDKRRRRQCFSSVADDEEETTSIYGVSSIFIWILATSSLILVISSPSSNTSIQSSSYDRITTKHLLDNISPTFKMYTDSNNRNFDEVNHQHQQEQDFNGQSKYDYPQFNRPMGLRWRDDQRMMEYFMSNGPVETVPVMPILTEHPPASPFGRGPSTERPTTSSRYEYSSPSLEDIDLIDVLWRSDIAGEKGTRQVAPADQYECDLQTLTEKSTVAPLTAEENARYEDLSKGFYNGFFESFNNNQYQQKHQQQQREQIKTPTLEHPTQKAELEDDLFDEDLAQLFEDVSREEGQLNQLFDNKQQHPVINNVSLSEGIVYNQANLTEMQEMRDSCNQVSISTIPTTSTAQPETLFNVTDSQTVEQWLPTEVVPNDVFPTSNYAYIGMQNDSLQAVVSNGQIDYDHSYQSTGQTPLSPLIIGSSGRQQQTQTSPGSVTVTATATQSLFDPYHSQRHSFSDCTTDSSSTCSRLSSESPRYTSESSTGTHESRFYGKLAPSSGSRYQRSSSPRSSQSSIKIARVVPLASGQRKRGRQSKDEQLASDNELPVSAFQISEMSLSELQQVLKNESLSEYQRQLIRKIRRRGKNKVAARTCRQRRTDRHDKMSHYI
In kind it is functional.

Experiment [16] deals with T7, G-protein coupled receptor 35 (Homo sapiens, UniProt Q9HC97). Briefly: SAR analysis of Agonists of the GPR35 Receptor using an Image-Based Assay - Set 4. [Related pubchem assays (depositor defined):AID2013, AID2026]. In kind it is functional.
The target of experiment [17] is T8, Cannabinoid receptor 2 (Homo sapiens, UniProt P34972). Briefly: SAR analysis of agonists of the Cannabinoid Receptor 2 using an Image-Based Assay - Set 3. [Related pubchem assays (depositor defined):AID2013, AID2026]. In kind it is functional.
For experiment [18], the target named is T8, Cannabinoid receptor 2. Briefly: SAR analysis of antagonists of the Cannabinoid Receptor 2 using an Image-Based Assay - Set 3. [Related pubchem assays (depositor defined):AID2013, AID2026]. In kind it is functional.
For experiment [19], the target named is T9, Cannabinoid receptor 1 (Homo sapiens, UniProt P21554). Briefly: SAR analysis of agonists of the Cannabinoid Receptor 1 using an Image-Based Assay - Set 4. [Related pubchem assays (depositor defined):AID2013, AID2026]. In kind it is functional.
For experiment [20], the target named is T9, Cannabinoid receptor 1. Briefly: SAR analysis of antagonists of the Cannabinoid Receptor 1 using an Image-Based Assay - Set 4. [Related pubchem assays (depositor defined):AID2013, AID2026]. In kind it is functional.
For experiment [21], the target named is G-protein coupled receptor 55 (Homo sapiens, UniProt Q9Y2T6). Briefly: SAR Analysis of Selective Antagonists of GPR55 using an Image-Based Assay - Set 4. [Related pubchem assays (depositor defined):AID2013, AID2026]. In kind it is functional.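 Also: antagonism of response to 5 µM lysophosphatidylinositol agonist.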
Experiment [22] deals with T7, G-protein coupled receptor 35. Briefly: SAR analysis of Antagonists of the GPR35 Receptor using an Image-Based Assay - Set 6. [Related pubchem assays (depositor defined):AID2013, AID2026]. In kind it is functional.
Experiment [23] has as its target Voltage-dependent T-type calcium channel subunit alpha-1H (Homo sapiens, UniProt O95180). Briefly: Cav3.2 T-type channel inhibitors, synthesized analogs, SAR follow-up, cell-based, synthetic library set 2, HEK293 HH8, Fluo-4 (AID 493023). It counts as functional.

SMILES strings stand for the structures. Activity calls are given as the source filed them.

T7 sequence (Q9HC97 whole entry): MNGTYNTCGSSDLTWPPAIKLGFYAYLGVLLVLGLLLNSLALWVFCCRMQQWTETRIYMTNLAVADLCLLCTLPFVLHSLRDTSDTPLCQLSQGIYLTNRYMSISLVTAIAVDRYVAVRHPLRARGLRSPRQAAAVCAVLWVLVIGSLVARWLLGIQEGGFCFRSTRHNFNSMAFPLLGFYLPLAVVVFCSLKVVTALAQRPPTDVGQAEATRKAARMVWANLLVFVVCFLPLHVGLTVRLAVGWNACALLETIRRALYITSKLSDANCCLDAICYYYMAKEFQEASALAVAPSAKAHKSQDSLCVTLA
T9 sequence (P21554 whole entry): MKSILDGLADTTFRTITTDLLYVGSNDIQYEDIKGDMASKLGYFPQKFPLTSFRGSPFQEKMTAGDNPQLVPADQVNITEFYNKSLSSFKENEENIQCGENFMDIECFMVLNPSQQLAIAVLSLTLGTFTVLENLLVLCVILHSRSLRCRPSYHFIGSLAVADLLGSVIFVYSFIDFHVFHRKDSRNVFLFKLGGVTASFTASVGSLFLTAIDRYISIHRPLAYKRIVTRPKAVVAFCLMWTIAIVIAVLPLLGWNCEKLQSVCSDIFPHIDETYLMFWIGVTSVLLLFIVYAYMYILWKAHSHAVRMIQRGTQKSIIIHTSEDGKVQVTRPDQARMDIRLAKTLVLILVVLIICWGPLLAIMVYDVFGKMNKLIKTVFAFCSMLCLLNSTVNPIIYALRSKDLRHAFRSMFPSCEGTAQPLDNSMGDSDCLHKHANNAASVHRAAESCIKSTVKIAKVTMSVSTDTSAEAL
T8 sequence (P34972 whole entry): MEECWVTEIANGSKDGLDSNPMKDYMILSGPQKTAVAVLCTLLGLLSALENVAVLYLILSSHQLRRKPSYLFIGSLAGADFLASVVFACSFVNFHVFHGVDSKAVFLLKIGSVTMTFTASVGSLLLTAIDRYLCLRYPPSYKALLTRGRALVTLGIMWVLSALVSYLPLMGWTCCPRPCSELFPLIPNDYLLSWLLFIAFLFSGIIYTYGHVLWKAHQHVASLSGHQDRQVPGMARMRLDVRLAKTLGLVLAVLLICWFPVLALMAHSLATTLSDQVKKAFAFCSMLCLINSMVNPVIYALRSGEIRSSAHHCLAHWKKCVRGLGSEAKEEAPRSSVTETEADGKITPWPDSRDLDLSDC
T3 sequence (P41143 whole entry): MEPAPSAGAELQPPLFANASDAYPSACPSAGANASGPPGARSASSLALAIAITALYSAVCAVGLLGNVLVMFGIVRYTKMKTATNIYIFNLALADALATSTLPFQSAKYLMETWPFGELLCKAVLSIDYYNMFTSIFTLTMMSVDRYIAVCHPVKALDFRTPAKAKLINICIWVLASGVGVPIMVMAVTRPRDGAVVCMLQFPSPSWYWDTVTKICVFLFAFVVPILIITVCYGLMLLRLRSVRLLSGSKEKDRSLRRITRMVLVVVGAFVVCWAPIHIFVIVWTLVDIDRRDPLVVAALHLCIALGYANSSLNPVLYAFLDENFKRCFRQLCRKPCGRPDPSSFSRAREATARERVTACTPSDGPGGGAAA
Chain of G-protein coupled receptor 55 (Q9Y2T6 whole entry): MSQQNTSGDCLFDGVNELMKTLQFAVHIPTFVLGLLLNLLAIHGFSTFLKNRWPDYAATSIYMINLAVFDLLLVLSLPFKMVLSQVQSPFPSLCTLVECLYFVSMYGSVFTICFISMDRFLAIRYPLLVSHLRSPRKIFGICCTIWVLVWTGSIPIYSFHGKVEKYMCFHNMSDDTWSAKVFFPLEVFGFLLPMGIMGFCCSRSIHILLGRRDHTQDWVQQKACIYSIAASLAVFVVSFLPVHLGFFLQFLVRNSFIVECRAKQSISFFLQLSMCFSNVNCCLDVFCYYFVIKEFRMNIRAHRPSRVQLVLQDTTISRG
T2 sequence (P41145 whole entry): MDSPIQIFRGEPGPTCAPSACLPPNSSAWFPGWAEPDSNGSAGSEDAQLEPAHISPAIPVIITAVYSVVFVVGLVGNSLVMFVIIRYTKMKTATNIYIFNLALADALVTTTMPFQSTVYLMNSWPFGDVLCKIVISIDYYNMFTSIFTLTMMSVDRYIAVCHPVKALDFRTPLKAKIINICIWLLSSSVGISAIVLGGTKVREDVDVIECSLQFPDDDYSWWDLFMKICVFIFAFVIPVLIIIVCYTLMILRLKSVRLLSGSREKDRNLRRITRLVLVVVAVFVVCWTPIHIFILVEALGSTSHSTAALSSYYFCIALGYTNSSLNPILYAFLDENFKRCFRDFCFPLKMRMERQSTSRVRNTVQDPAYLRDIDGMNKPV
Chain of Beta-galactosidase (Q8VNN2 whole entry): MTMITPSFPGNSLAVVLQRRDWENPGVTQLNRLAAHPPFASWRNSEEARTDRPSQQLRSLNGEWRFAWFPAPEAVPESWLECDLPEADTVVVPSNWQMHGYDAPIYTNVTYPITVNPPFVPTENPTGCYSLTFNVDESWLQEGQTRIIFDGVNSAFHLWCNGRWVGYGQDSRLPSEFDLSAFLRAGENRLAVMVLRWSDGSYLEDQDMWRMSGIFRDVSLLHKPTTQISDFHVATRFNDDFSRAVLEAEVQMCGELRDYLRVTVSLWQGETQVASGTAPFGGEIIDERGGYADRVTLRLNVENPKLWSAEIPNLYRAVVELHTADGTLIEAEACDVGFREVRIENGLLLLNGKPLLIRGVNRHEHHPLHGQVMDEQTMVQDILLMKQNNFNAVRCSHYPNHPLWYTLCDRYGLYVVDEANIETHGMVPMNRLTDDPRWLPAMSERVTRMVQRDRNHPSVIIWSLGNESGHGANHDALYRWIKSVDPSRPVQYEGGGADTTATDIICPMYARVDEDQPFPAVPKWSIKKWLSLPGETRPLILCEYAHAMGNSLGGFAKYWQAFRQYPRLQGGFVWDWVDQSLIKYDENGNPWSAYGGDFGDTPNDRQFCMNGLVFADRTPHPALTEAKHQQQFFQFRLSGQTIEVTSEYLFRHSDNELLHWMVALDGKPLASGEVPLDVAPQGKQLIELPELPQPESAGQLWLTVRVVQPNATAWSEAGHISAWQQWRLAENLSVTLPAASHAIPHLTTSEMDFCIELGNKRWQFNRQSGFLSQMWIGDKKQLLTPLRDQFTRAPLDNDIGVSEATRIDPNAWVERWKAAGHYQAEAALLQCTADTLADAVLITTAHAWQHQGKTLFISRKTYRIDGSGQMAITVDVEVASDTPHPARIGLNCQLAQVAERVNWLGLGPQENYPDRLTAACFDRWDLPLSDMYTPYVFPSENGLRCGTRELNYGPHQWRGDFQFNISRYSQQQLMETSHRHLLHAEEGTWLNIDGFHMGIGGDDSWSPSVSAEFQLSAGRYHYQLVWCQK
Chain of Mu-type opioid receptor (P35372 whole entry): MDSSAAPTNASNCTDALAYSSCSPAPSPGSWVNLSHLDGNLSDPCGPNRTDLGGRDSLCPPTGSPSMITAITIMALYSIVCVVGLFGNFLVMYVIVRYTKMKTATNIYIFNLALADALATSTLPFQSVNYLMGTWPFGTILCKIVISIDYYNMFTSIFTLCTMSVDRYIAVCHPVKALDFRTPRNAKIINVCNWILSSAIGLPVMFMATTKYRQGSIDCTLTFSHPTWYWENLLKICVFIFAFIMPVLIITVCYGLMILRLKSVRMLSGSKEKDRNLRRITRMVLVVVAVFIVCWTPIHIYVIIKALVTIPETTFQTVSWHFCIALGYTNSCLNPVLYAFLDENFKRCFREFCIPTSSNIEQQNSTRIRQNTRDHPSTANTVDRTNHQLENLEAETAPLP
Chain of E3 ubiquitin-protein ligase Mdm2 (Q00987 whole entry): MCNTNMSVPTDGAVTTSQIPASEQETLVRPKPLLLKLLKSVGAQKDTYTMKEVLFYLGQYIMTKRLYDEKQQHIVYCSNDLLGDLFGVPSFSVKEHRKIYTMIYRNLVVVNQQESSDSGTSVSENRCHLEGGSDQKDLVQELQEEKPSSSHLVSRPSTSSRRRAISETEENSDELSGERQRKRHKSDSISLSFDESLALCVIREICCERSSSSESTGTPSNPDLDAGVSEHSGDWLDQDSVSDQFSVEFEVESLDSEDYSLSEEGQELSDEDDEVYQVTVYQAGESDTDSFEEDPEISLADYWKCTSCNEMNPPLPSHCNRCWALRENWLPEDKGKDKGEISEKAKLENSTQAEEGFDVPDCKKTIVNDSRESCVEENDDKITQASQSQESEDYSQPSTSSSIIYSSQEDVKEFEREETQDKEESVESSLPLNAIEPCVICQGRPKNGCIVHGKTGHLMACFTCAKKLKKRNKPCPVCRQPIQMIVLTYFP

On to `Oc1cc(/C=C/c2c(F)cccc2Cl)nc2ccccc12`, for which the IC50 in experiment [1] was > 66.2 µM (inactive); in experiment [2], 9.6 µM (active); in [3], 3.14 µM (active); in experiment [4] it was > 49.7 µM (inactive).

Turning to `CC(=O)Nc1ccc(NC(=O)C(C)OC(=O)c2ccccc2C(=O)c2ccc(Cl)c([N+](=O)[O-])c2)cc1` (stereo not given), the results for the IC50 in experiment [5], in experiment [8] and in [10] were 8.15 µM (active), > 32 µM (inactive) and 8.71 µM, respectively. Also, the EC50 is > 32 µM (inactive) in [6], > 31.5 µM (inactive) in experiment [7] and > 32 µM (inactive) in [9].

In the case of `CCN(CC)c1ccc(/C=C2\C(=O)c3ccc(C(=O)O)cc3C2=O)cc1`, the IC50 in experiment [11] was 37.7 µM (active); in experiment [13], 85.4 µM (active); in experiment [15], 23.3 µM (active). Moreover, the results for the EC50 in [12] and in experiment [14] were 0.1 µM (active) and 0.516 µM (active), respectively.

Consider `Cc1nc(N2CCN(C(=O)c3ccncc3)CC2)c2c3c(sc2n1)CC(C)CC3` (stereo not given), for which the EC50 in experiment [16], in [17] and in experiment [19] was > 32 µM (inactive) in each case. Moreover, the IC50 was > 32 µM (inactive) in [18], 13.3 µM (inactive) in experiment [20], > 32 µM (inactive) in [21] and > 32 µM (inactive) in experiment [22].

Take `Cc1nc(N2CCN(C(=O)c3ccccc3)CC2)c2c3c(sc2n1)CC(C)CC3` (stereo not given): the results for the EC50 in experiment [16], in experiment [17] and in experiment [19] were > 32 µM (inactive), 24.1 µM (inactive) and > 32 µM (inactive), respectively. Further, the IC50 was > 9.18 µM (active) in experiment [18], 1.68 µM (active) in experiment [20], 21.5 µM (inactive) in [21] and > 32 µM (inactive) in [22].

On to `O=C(COc1ccccc1Cl)N[C@H]1CCCN(Cc2ccccc2)C1`, for which the EC50 in [23] is 10 µM (active).

Broadly, the IC50 is the concentration that inhibits the measured activity by half. Usually EC50 stands for the concentration that produces a half-maximal response.

The record behind these values is ChEMBL document CHEMBL1201862, “PubChem BioAssay data set” (2004).
